Measurements from patent US20230227435A1, “SMALL MOLECULE MODULATORS OF IL-17” (LEO PHARMA A/S, priority 2020, published 2023).

Target: T1, human IL-17AA (Homo sapiens, UniProt Q16552)
T1 construct: host or cells: HEK (human embryonic kidney) cells
T1 sequence (Q16552 24-155) 1: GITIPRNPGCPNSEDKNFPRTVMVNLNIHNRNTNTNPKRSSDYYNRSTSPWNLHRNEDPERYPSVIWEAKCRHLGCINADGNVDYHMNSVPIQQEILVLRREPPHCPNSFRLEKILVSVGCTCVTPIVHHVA
T1 sequence (Q16552 24-155) 2: T1 sequence (Q16552 24-155) 1
Assay: IL-8 release assay in human epithelial keratinocytes adult (HEKa)
Assay type: cell-based
Details: HEKa cells; 3 ng/mL HEK-human IL-17AA + 10 ng/mL human TNFalpha; 68-72 hours; IL-8 by HTRF; read-out: Rel EC50 IL-8 release assay
Procedure: Example 8: IL-8 Release Assay in Human Epithelial Keratinocytes Adult (HEKa)
Keratinocytes were seeded at 3500 cells/well in 384-well ViewPlates (Perkin Elmer) in Epilife medium (Thermo Fisher) containing human keratinocyte growth supplement (HKGS) without hydrocortisone and incubated in a humid incubator at 37° C., 5% CO2, overnight. The following day growth medium was removed and 25 μl fresh Epilife medium was added. 75 nL test compound in100% DMSO was added into each well reserved for test compounds, by the use of acoustic pipetting. The remaining wells received an equal volume of DMSO only, as vehicle control, or terfenadine in DMSO, as a positive control for any cytotoxic compounds. Subsequently, another 25 μL Epilife medium was added to each well. Finally, wells containing test compounds and wells prepared to yield maximum stimulation received 25 μL of 9 ng/mL recombinant, human embryonic kidney cell (HEK)-derived human IL-17AA+30 ng/mL human TNF-alpha, in Epilife medium. Wells prepared to define 100% inhibition of IL-17 effects received 25 μL of 30 ng/mL human TNF-alpha alone, in Epilife medium. Final concentrations were 3 ng/mL HEK-human IL-17AA+10 ng/mL human TNFalpha (maximum stimulation) and 10 ng/mL human TNFalpha alone (100% inhibition, Emax), respectively. Cells were incubated for 68-72 hours in the incubator. IL-8 released from the cells was measured by the use of a commercial homogenous time-resolved fluorescence (HTRF) assay (CisBio). 2 μL cell culture supernatant was transferred to a 384-well Proxiplate. 5 μL HTRF reagent was added and the plates were incubated sealed in the dark for 3-22 hours at room temperature. Time-resolved fluorescence was read at 665 vs 620 nm, with excitation at 320 nm, and IL-8 levels were calculated as percent of controls. Reduction of the amount of secreted IL-8 indicates decreased IL-17 signaling. Concentration response curves were fitted by the use of a four-parameter logistic equation. Relative IC50 and Emax were reported from curves showing acceptable fit (r^2>0.9). Cytotoxicity was measured in the cell-containing Viewplates following addition of 7 μL PrestoBlue (Thermo Fisher) and incubation for 2.5-3 hours at room temperature, by measuring fluorescence at 615 nm (excitation at 535 nm). Fluorescence was directly proportional to the amount of metabolic activity. Reduction of fluorescence signal indicated cytotoxicity.
Compounds of the present invention were tested in the IL-8 release assay in human epithelial keratinocytes.

Row | SMILES | EC50
1 | COc1ncccc1-c1nnc(C(C(=O)Nc2ccc(-c3c(C)n[nH]c3C)cc2)C(C2CC2)C2CC2)[nH]1 (stereo not drawn) [Example 49, 3,3-dicyclopropyl-N-[4-(3,5-dimethyl-1H-pyrazol-4-yl)phenyl]-2-[5-(2-methoxy-3-pyridyl)-4H-1,2,4-triazol-3-yl]propanamide] | 460 nM
2 | Cc1cncc(-c2nnc(C(C(=O)Nc3ccc(-c4c(C)n[nH]c4C)cc3)C(C3CC3)C3CC3)[nH]2)c1 (stereo not drawn) [Example 50, 3,3-dicyclopropyl-N-[4-(3,5-dimethyl-1H-pyrazol-4-yl)phenyl]-2-[5-(5-methyl-3-pyridyl)-4H-1,2,4-triazol-3-yl]propanamide] | 110 nM
3 | CCOc1cc(-c2nnc(C(C(=O)Nc3ccc(-c4c(C)n[nH]c4C)cc3)C(C3CC3)C3CC3)[nH]2)ccn1 (stereo not drawn) [Example 51, 3,3-dicyclopropyl-N-[4-(3,5-dimethyl-1H-pyrazol-4-yl)phenyl]-2-[5-(2-ethoxy-4-pyridyl)-4H-1,2,4-triazol-3-yl]propanamide] | 100 nM
4 | Cc1ncccc1-c1nnc(C(C(=O)Nc2ccc(-c3c(C)n[nH]c3C)cc2)C(C2CC2)C2CC2)[nH]1 (stereo not drawn) [Example 52, 3,3-dicyclopropyl-N-[4-(3,5-dimethyl-1H-pyrazol-4-yl)phenyl]-2-[5-(2-methyl-3-pyridyl)-4H-1,2,4-triazol-3-yl]propanamide] | 180 nM
5 | Cc1ccncc1-c1nnc(C(C(=O)Nc2ccc(-c3c(C)n[nH]c3C)cc2)C(C2CC2)C2CC2)[nH]1 (stereo not drawn) [Example 53, 3,3-dicyclopropyl-N-[4-(3,5-dimethyl-1H-pyrazol-4-yl)phenyl]-2-[5-(4-methyl-3-pyridyl)-4H-1,2,4-triazol-3-yl]propanamide] | 73 nM
6 | Cc1n[nH]c(C)c1-c1ccc(NC(=O)C(c2nnc(-c3ccnc(C(F)(F)F)c3)[nH]2)C(C2CC2)C2CC2)cc1 (stereo not drawn) [Example 54, 3,3-dicyclopropyl-N-[4-(3,5-dimethyl-1H-pyrazol-4-yl)phenyl]-2-[5-[2-(trifluoromethyl)-4-pyridyl]-4H-1,2,4-triazol-3-yl]propanamide] | 76 nM
7 | Cc1n[nH]c(C)c1-c1ccc(NC(=O)C(c2nnc(-c3ccnc(C(F)F)c3)[nH]2)C(C2CC2)C2CC2)cc1 (stereo not drawn) [Example 55, 3,3-dicyclopropyl-2-[5-[2-(difluoromethyl)-4-pyridyl]-4H-1,2,4-triazol-3-yl]-N-[4-(3,5-dimethyl-1H-pyrazol-4-yl)phenyl]propanamide] | 27 nM
8 | COc1ccncc1-c1nnc(C(C(=O)Nc2ccc(-c3c(C)n[nH]c3C)cc2)C(C2CC2)C2CC2)[nH]1 (stereo not drawn) [Example 56, 3,3-dicyclopropyl-N-[4-(3,5-dimethyl-1H-pyrazol-4-yl)phenyl]-2-[5-(4-methoxy-3-pyridyl)-4H-1,2,4-triazol-3-yl]propanamide] | 320 nM
9 | Cc1n[nH]c(C)c1-c1ccc(NC(=O)C(c2nnc(-c3ccnn3CCCO)[nH]2)C(C2CC2)C2CC2)cc1 (stereo not drawn) [Example 57, 3,3-dicyclopropyl-N-[4-(3,5-dimethyl-1H-pyrazol-4-yl)phenyl]-2-[5-[2-(3-hydroxypropyl)pyrazol-3-yl]-4H-1,2,4-triazol-3-yl]propanamide] | 59 nM
10 | Cc1n[nH]c(C)c1-c1ccc(NC(=O)C(c2nnc(-c3ccccn3)[nH]2)C(C2CC2)C2CC2)cc1 (stereo not drawn) [Example 58, 3,3-dicyclopropyl-N-[4-(3,5-dimethyl-1H-pyrazol-4-yl)phenyl]-2-[5-(2-pyridyl)-4H-1,2,4-triazol-3-yl]propanamide] | 310 nM
11 | Cc1cccc(-c2nnc(C(C(=O)Nc3ccc(-c4c(C)n[nH]c4C)cc3)C(C3CC3)C3CC3)[nH]2)n1 (stereo not drawn) [Example 59, 3,3-dicyclopropyl-N-[4-(3,5-dimethyl-1H-pyrazol-4-yl)phenyl]-2-[5-(6-methyl-2-pyridyl)-4H-1,2,4-triazol-3-yl]propanamide] | 45 nM
12 | Cc1cccnc1-c1nnc(C(C(=O)Nc2ccc(-c3c(C)n[nH]c3C)cc2)C(C2CC2)C2CC2)[nH]1 (stereo not drawn) [Example 60, 3,3-dicyclopropyl-N-[4-(3,5-dimethyl-1H-pyrazol-4-yl)phenyl]-2-[5-(3-methyl-2-pyridyl)-4H-1,2,4-triazol-3-yl]propanamide] | 250 nM
13 | Cc1n[nH]c(C)c1-c1ccc(NC(=O)C(c2nnc(C3CCOCC3)[nH]2)C(C2CC2)C2CC2)cc1 (stereo not drawn) [Example 61, 3,3-dicyclopropyl-N-[4-(3,5-dimethyl-1H-pyrazol-4-yl)phenyl]-2-(5-tetrahydropyran-4-yl-4H-1,2,4-triazol-3-yl)propanamide] | 2700 nM
14 | Cc1n[nH]c(C)c1-c1ccc(NC(=O)C(c2nnc(C3CCOC3)[nH]2)C(C2CC2)C2CC2)cc1 (stereo not drawn) [Example 62, 3,3-dicyclopropyl-N-[4-(3,5-dimethyl-1H-pyrazol-4-yl)phenyl]-2-(5-tetrahydrofuran-3-yl-4H-1,2,4-triazol-3-yl)propanamide] | 1600 nM
15 | Cc1n[nH]c(C)c1-c1ccc(NC(=O)C(c2nnc(-c3ccnc(C(F)F)c3)[nH]2)C2CCC(F)(F)CC2)cc1 (stereo not drawn) [Example 63, 2-(4,4-difluorocyclohexyl)-2-[5-[2-(difluoromethyl)-4-pyridyl]-4H-1,2,4-triazol-3-yl]-N-[4-(3,5-dimethyl-1H-pyrazol-4-yl)phenyl]acetamide] | 200 nM
16 | Cc1cc(-c2nnc(C(C(=O)Nc3ccc(-c4c(C)n[nH]c4C)cc3)C3CCC(F)(F)CC3)[nH]2)ccn1 (stereo not drawn) [Example 65, 2-(4,4-difluorocyclohexyl)-N-[4-(3,5-dimethyl-1H-pyrazol-4-yl)phenyl]-2-[5-(2-methyl-4-pyridyl)-4H-1,2,4-triazol-3-yl]acetamide] | 520 nM
17 | COc1cc(-c2nnc(C(C(=O)Nc3ccc(-c4c(C)n[nH]c4C)cc3)C3CCC(F)(F)CC3)[nH]2)ccn1 (stereo not drawn) [Example 66, 2-(4,4-difluorocyclohexyl)-N-[4-(3,5-dimethyl-1H-pyrazol-4-yl)phenyl]-2-[5-(2-methoxy-4-pyridyl)-4H-1,2,4-triazol-3-yl]acetamide] | 640 nM
18 | CCn1nccc1-c1cnc(C(C(=O)Nc2ccc(-c3c(C)n[nH]c3C)cc2)C(C2CC2)C2CC2)[nH]1 (stereo not drawn) [Example 67, 3,3-dicyclopropyl-N-[4-(3,5-dimethyl-1H-pyrazol-4-yl)phenyl]-2-[5-(2-ethylpyrazol-3-yl)-1H-imidazol-2-yl]propanamide] | 210 nM
19 | Cc1n[nH]c(C)c1-c1ccc(NC(=O)C(c2ncc(-c3ccnn3C(C)C)[nH]2)C(C2CC2)C2CC2)cc1 (stereo not drawn) [Example 68, 3,3-dicyclopropyl-N-[4-(3,5-dimethyl-1H-pyrazol-4-yl)phenyl]-2-[5-(2-isopropylpyrazol-3-yl)-1H-imidazol-2-yl]propanamide] | 170 nM
20 | COc1cc(-c2cnc(C(C(=O)Nc3ccc(-c4c(C)n[nH]c4C)cc3)C(C3CC3)C3CC3)[nH]2)ccn1 (stereo not drawn) [Example 69, 3,3-dicyclopropyl-N-[4-(3,5-dimethyl-1H-pyrazol-4-yl)phenyl]-2-[5-(2-methoxy-4-pyridyl)-1H-imidazol-2-yl]propanamide] | 490 nM
21 | Cc1n[nH]c(C)c1-c1ccc(NC(=O)C(c2nc(F)c(-c3ccccc3)[nH]2)C(C2CC2)C2CC2)cc1 (stereo not drawn) [Example 72, 3,3-dicyclopropyl-N-[4-(3,5-dimethyl-1H-pyrazol-4-yl)phenyl]-2-(4-fluoro-5-phenyl-1H-imidazol-2-yl)propanamide] | 260 nM
